Source: patent publication EP0612321B1, “PYRIDO PYRIDAZINONE AND PYRIDAZINTHIONE COMPOUNDS WITH PDE IV INHIBITING ACTIVITY” (SYNTEX (U.S.A.) INC., priority 1991, dated 1993)

Key:
mice = assay: Toxicology, 2 weeks dosing in mice; assay type: in vivo; conditions: 3 to 25 mg/kg/day
Human Lymphocyte PDE IV = assay: Human Lymphocyte cAMP Phosphodiesterase Assay (inhibition of PDE IV); assay type: biochemical; conditions: Inhibition of Human Lymphocyte PDE IV (human B cell line 43D supernatant)
Method: Human B cell line (43D) was cultured at 37°C in 7% CO2 in RPMI 1640 with L-glutamine and 10% Nu-Serum. Prior to the assay ∼1.5x10^8 cells were centrifuged at 1000 rpm for 10 minutes in a table top clinical centrifuge. The pellet was resuspended in 2-3 ml of 45 mM Tris-HCl buffer, pH 7.4. The suspension was homogenized and centrifuged at 12,000 x g 4°C for 10 minutes. The supernatant was diluted to 28 ml with Tris-HCl buffer and used directly in the assay or stored at -20°C. The final concentration of DMSO in the PDE incubation medium was 1%. Nitraquazone was included in each assay (10 and 100µM) as a reference standard.
The phosphodiesterase incubation medium contained 10 mM Tris-HCl buffer, pH 7.7, 10 mM MgSO4, 0.1-1µM […] (0.2 µCi) in a total volume of 1.0 ml. Following addition of the enzyme, the contents were mixed and incubated for 10 min at 30°C. The reaction was terminated by immersing the tubes in a boiling-water bath for 90 sec. After the tubes were cooled in an ice-water bath, 0.1 ml (100µg) of 5'-nucleotidase from snake venom (Crotalus atrox, Sigma V-7000) was added to each tube. The contents were mixed and incubated for 30 min at 30°C. The nucleotidase reaction was terminated by immersing the tubes in a boiling water bath for 60 sec. […]

Human PBL = assay: Mitogenic response of human peripheral blood lymphocytes to concanavalin A (3H-thymidine uptake); assay type: cell-based; conditions: Lymphocyte, concanavalin A 2 µg/ml, 48 hours, read-out: % Suppression
Method: This procedure is a modification of a procedure initially described by Greaves, et al. ["Activation of human T and B lymphocytes by polyclonal mitogens," Nature, 248, 698-701 (1974)].
Human mononuclear cells (PBL) are separated from heparinized whole blood by density gradient centrifugation in Ficoll-Paque (Pharmacia). After washing, 5 x 10^4 cells/well are cultured in microtiter plates with minimal essential media supplemented with 1% human serum, gentamicin, sodium bicarbonate, 2-mercaptoethanol, glutamine, non-essential amino acids, and sodium pyruvate. The mitogen concanavalin A (Sigma) is used at a concentration of 2 µg/ml. Test materials are tested at concentrations between 10^-4 and 10^-10 M, by addition to the culture at time 0. Cultures are set up in quadruplicate and incubated at 37°C in a humidified atmosphere with 5% CO2 for 48 hours. A pulse of 1.0 µCi/well of ^3H-thymidine is added for the last 4 hours. Cells are collected on glass fiber filters with an automatic harvester and radioactivity is measured by standard scintillation procedures. The 50% inhibitory concentration ("IC50") for mitogenic stimulation is determined graphically. The compounds of the present invention show immunosuppressive activity when tested by this method.
The % suppression represents test well counts minus background (wells with no concanavalin A) divided by control well counts (wells with no compound) minus background times 100.

[1] = tested on: Arachidonic Acid-Induced Ear Edema (AAEE); assay: Arachidonic Acid-Induced Ear Edema (AAEE) in the mouse, anti-inflammatory activity; assay type: in vivo, Female Charles River ICR mice; conditions: 1 h, ear plug weight one hour after arachidonic acid challenge
Method: This procedure is a modification of a procedure described by Young et al., J. Invest. Derm., 82:367-371 (1984).
Female Charles River ICR mice 23-27 grams are administered 0.2 ml of test material. The mice are later challenged with 20 µl of arachidonic acid applied topically to the ear. One hour after challenge, the weight of an 8 mm disc is determined. The mean increase in ear plug weight is calculated. Materials with anti-inflammatory activity inhibit the increase in ear plug weight.

[2] = tested on: plaque-forming cells (PFC); assay: Hemolytic Plaque Forming Cell (PFC) Assay, immunosuppressive activity; assay type: in vivo, C3H female mice; conditions: Mus musculus, 96 h; oral dosage form; mice sensitized with SRBC; spleens taken four days after SRBC inoculation; read-out: ED50 (Immune PFC)
Excerpt: This procedure is a modification of "The agar plaque technique for recognizing antibody producing cells," a procedure initially described by Jerne, et al. [Cell-bound Antibodies, Amos and Kaprowski editors (Wistar Institute Press, Philadelphia, 1963) p. 109].
Groups of 5-6 adult C3H female mice were sensitized with 1.25 x 10^8 sheep red blood cells (SRBC) and simultaneously treated with an oral dosage form of the test material in an aqueous vehicle. Animals in a control group receive the same volume of vehicle. Four days after SRBC inoculation, spleens are dispersed in glass homogenizers. The number of nucleated cells (WBC) is determined and the spleen cell suspension is mixed with SRBC, guinea pig complement and agar solution at 0.5% concentration. Aliquots of the above mixture (0.1 ml) are dropped on four separate quadrants of a Petri dish and are covered with cover slips. After two hours incubation at 37°C, areas of hemolysis around plaque-forming cells (PFC) are counted with a dissecting microscope. Total WBC/spleen, PFC/spleen and PFC/10^6 WBC (PPM) are calculated for each mouse spleen. Geometric means of each treatment group are then compared with the vehicle-treated control group.

Structure (SMILES)	CONCLUSION (mortality) (mice)	IC50 (Human Lymphocyte PDE IV) [pM]	inhibition at 0.1 µM (Human PBL) [%]	inhibition at 1 µM (Human PBL) [%]	inhibition at 10 µM (Human PBL) [%]	inhibition at 100 µM (Human PBL) [%]	ED50 [1] [mg/kg]	ED50 [2] [mg/kg]
O=c1c2cccnc2c(-c2cccc([N+](=O)[O-])c2)nn1Cc1ccncc1 [Compound I, 6-(4-pyridylmethyl)-8-(3-nitrophenyl)pyrido[2,3-d]pyridazin-5-one]	no mortality occurred at any of the dose levels tested.	230	83	80	85	100	0.003	1
O=c1c2cccnc2c(-c2cccc(Cl)c2)nn1Cc1ccncc1 [Compound II, 6-(4-pyridylmethyl)-8-(3-chlorophenyl)pyrido[2,3-d]pyridazin-5-one]	no mortality occurred at any of the dose levels tested.	1000	74	83	87	100	0.009	3
